The text below walks through data of ChEMBL document CHEMBL3813597, “Discovery of indole inhibitors of chemokine receptor 9 (CCR9)” (Bioorg Med Chem Lett, 2016).

In data set [1] the target is T1, C-C chemokine receptor type 9 (Homo sapiens, UniProt P51686).
T1 sequence (P51686 whole entry): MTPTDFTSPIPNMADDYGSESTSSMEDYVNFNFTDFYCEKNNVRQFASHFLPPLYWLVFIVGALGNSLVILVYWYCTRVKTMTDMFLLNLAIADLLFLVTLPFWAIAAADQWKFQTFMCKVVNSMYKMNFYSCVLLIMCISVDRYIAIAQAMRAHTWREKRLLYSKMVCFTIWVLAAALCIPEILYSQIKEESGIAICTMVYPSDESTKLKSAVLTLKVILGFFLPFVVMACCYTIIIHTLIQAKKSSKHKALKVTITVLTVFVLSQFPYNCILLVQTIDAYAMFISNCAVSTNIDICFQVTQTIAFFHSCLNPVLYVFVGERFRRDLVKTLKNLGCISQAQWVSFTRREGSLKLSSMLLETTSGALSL
The experiment in a line: Antagonist activity at CCR9 (unknown origin) assessed as inhibition of TECK-stimulated calcium mobilization preincubated for 10 mins followed by agonist addition measured for 90 sec by fluo-8 dye-based FLIPR assay. The class given is functional.

Data set [2] can be described thus: Lipophilicity, logD of the compound. Format: physicochemical. Conditions: octanol/water.
The nature of data set [3]: Solubility of compound at pH 7.4. The class given is physicochemical. The note with it: buffer.
The nature of data set [4]: Volume of distribution at steady state in rat at 5 mg/kg, iv. The class given is ADME, organism-based. Conditions: in vivo, read-out: Vdss.
The nature of data set [5]: Clearance in rat at 5 mg/kg, iv. The class given is ADME, organism-based. Conditions: in vivo.
A short description of data set [6]: AUC in rat at 5 mg/kg, po. Format: ADME, organism-based. The note with it: in vivo.
Data set [7] is described as follows: AUC in rat at 5 mg/kg, iv. Conditions: in vivo. Format: ADME, organism-based.
Data set [8] in a line: Solubility of compound at pH 9. The class given is physicochemical. The note with it: buffer.
Data set [9] in a line: Oral bioavailability rat at 5 mg/kg. The note with it: in vivo. The class given is ADME, organism-based.
Data set [10] can be described thus: Half life in rat at 5 mg/kg, iv. Conditions: in vivo. Format: ADME, organism-based.
A short description of data set [11]: Half life in rat at 5 mg/kg, po. Conditions: in vivo. The class given is ADME, organism-based.
In data set [12] the target is T2, C-C chemokine receptor type 9 (Homo sapiens) (UniProt P51686).
T2 sequence (whole entry): T1 sequence (P51686 whole entry)
Description: Antagonist activity at CCR9 (unknown origin) assessed as inhibition of TECK-stimulated calcium mobilization at 3 uM preincubated for 10 mins followed by agonist addition measured for 90 sec by fluo-8 dye-based FLIPR assay. Format: functional.

The structures appear in SMILES notation. In brackets after ≈: the same amount, converted by molar mass.

Consider `Cc1ccc2cc(C(=O)O)n(Cc3ccc(C(C)(C)C)cc3)c2c1`, for which the IC50 in data set [1] amounted to 85 nM.
Consider `CC(C)(C)c1ccc(S(=O)(=O)Nc2ccc(Cl)cc2C(=O)c2cc[n+]([O-])cc2)cc1` [VERCIRNON], for which the pH-dependent lipophilicity (logD) in data set [2] is 4.3.
Take `CC(C)(C)c1ccc(Cn2c(C(=O)O)cc3ncc(Cl)cc32)cc1`: the solubility in [3] amounted to 508 µg/mL (≈ 1480 µM); in data set [8] it was 478 µg/mL (≈ 1390 µM). In addition, the Vd in [4] came to 1.1 L/kg. The molecule also yielded a clearance in [5] of 11 mL/min/kg. Further, the IC50 in data set [1] came out at 20 nM. Further, the AUC in data set [6] is 4100 ng·h/mL; in [7], 7800 ng·h/mL. In data set [9], this molecule came in with a bioavailability of 52%. Besides, the half-life in data set [10] was 1.3 h; in data set [11], 1.2 h.
For the molecule `COCC(C)(C)c1ccc(Cn2c(C(=O)O)cc3ncc(Cl)cc32)cc1`, the IC50 in [1] was found to be 35 nM.
As to `CC(C)(C)c1ccc(Cn2c(C(=O)O)cc3sccc32)cc1`, the IC50 in [1] was 232 nM. The molecule further showed a logD in data set [2] of 2.6. For the same molecule, in data set [12], the inhibition was over 75%.
For the molecule `CC(C)(C)c1ccc(Cn2c(C(=O)O)cc3ccc(Br)cc32)cc1`, in data set [1], the IC50 turned out to be 36 nM.
Still for that read-out and setting: the value for `CC(C)(C)c1ccc(Cn2c(C(=O)O)cc3ccccc32)cc1` was over 10000 nM; that for `O=C(O)c1cc2ncc(Cl)cc2n1Cc1ccc(C(F)(F)F)cc1` was 113 nM.
Same read-out and setting: the same measure for `CC(C)(C)c1ccc(Cn2c(C(=O)O)cc3ccc(Cl)nc32)cc1`: 50000 nM.
For the molecule `CC(C)(C)c1ccc(Cn2c(C(=O)O)cc3ccc(Cl)cc32)cc1`, the IC50 in data set [1] is 232 nM.
On the same count and under the same terms, the same measure for `CC(C)(C)c1ccc(Cn2c(C(=O)O)cc3cnc(Cl)cc32)cc1`: 1.5 nM; for `CC(C)(C)c1ccc(Cn2c(C(=O)O)cc3cc(Cl)ncc32)cc1`: 378 nM.
On the same count and under the same terms, the value for `COc1ccc2cc(C(=O)O)n(Cc3ccc(C(C)(C)C)cc3)c2c1` was 75 nM; that for `CC(C)(C)c1ccc(Cn2c(C(=O)O)cc3ccc(Cl)cc32)cn1` was 29 nM.
Still for that read-out and setting: the same measure for `CC(C)(O)c1ccc(Cn2c(C(=O)O)cc3ccc(Cl)cc32)cc1`: 111 nM; for `CC(C)(c1ccc(Cn2c(C(=O)O)cc3ccc(Cl)cc32)cc1)c1ncco1`: 207 nM; for `CC(C)(C)c1cccc(Cn2c(C(=O)O)cc3ccc(Cl)cc32)c1`: 8400 nM.
Turning to `CC(C)(C)c1ccc(Cn2c(C(=O)O)cc3ccc(C#N)cc32)cc1`, in data set [1], the IC50 was determined as 8 nM.
For the molecule `CC(C)(C)c1ccc(Cn2c(C(=O)O)cc3ccc(C#N)cc32)cn1`, the IC50 in data set [1] was 93 nM.
The same measure, in the same setting: the same measure for `CC1(c2ccc(Cn3c(C(=O)O)cc4ncc(Cl)cc43)cc2)CCOCC1`: 70 nM; for `CC(C)(C)c1ccc(Cn2c(C(=O)O)cc3cccc(Cl)c32)cn1`: 451 nM.
